Laboratory results reported in US20060159829A1, “Consumer product for enhancing mental focus” (Conopco Inc, d/b/a UNILEVER, priority 2004, published 2006).

What was measured:
[1] = cited from earlier work
[2] = system: spoilage yeasts or moulds; assay: Antimicrobial effect of cinnamic acid at low and neutral pH; type: cell-based; details: 100 ppm

Structure (SMILES) | pKa [1] | effect on growth of spoilage yeasts or moulds ([2]; neutral pH) | effect on growth of spoilage yeasts or moulds ([2]; pH 3.0)
O=S(O)O [sulphite] | 1.88 | – | –
O=C(O)C=Cc1ccccc1 [cinnamic acid] | – | entirely without effect | completely extinguish growth
